# Target: T1, TYK2-JH2 (Homo sapiens, UniProt P29597)
# T1 construct: TYK JH2 enzyme mix (ChemPartner: CP20210818A-BV); purchased ChemPartner CP20210818A-BV
# Assay: TYK2-JH2 HTRF binding assay (ligand efficiency)
# Details: calculated from binding-assay IC50 (Equation 1)
# Method: The following example describes the TYK2-JH2 HTRF binding assay used to determine the ligand efficiency of the TYK2 inhibitors.
# To calculate ligand efficiency, Equation 1 is applied: […]
# in which IC50 comes from the binding assay used to determine compound potency.
# TYK JH2 enzyme mix (ChemPartner: CP20210818A-BV), tracer (ChemPartner: CP-0029472-051) and mAb Anti-6HIS Tb cryptate Gold (Cisbio: Cat No. 61HI2TLA) mix were prepared in assay buffer (10 mM MgCl2, 20 mM HEPES pH 7.5, 0.01% Triton X-100, 1 mM DTT). Compounds diluted in DMSO (Final Concentrations 0.1 to 0.000005 [μM]) and enzyme mix (0.5 nM Final Concentration) were added to 384 well plates, briefly centrifuged and incubated at room temperature for 10 minutes. After incubation, tracer mix (Tracer-35 nM final concentration); (MAb Anti-6HIS Tb cryptate Gold-0.5× final)) was added, briefly centrifuged then incubate at room temperature 60 minutes. After incubation, plates were read by Envision TR-FRET (Ex340/Em495/520) protocol (PerkinElmer-Envision 2104 multilabel plate reader).
# T1 sequence (P29597 589-875 limits assumed): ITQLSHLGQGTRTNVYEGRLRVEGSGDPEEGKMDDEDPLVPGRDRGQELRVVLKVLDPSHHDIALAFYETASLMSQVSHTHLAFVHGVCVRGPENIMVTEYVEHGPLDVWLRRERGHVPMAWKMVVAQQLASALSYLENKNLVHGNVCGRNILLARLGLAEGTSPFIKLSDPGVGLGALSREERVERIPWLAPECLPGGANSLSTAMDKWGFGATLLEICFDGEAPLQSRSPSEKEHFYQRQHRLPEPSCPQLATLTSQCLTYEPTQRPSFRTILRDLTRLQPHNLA
row,SMILES,Ligand Efficiency
1,"CC(c1ccc(Nc2cc(Nc3ncccc3S(C)(=O)=O)ncn2)nc1)N1CC2(CC(F)C2)C1 (stereo in doubt) [Compound 10, N^4-(5-((1R)-1-(6-fluoro-2-azaspiro[3.3]heptan-2-yl)ethyl)pyridin-2-yl)-N^6-(3-(methylsulfonyl)pyridin-2-yl)pyrimidine-4,6-diamine]",††† (†††: >0.39)
2,"CC(c1ccc(Nc2cc(Nc3ncccc3S(C)(=O)=O)ncn2)nc1)N1CCCC1 (stereo in doubt) [Compound 15, (R)—N^4-(3-(methylsulfonyl)pyridin-2-yl)-N^6-(5-(1-(pyrrolidin-1-yl)ethyl)pyridin-2-yl)pyrimidine-4,6-diamine]",††† (†††: >0.39)
3,"CC(c1ccc(Nc2cc(Nc3ncccc3S(C)(=O)=O)ncn2)nc1)N1CC2(CCOCC2)C1 (stereo in doubt) [Compound 31, (R)—N^4-(5-(1-(7-oxa-2-azaspiro[3.5]nonan-2-yl)ethyl)pyridine-2-yl)-N^6-(3-(methylsulfonyl)pyridin-2-yl)pyrimidine-4,6-diamine]",†† (††: 0.37-0.39)
4,"CC(NC1COC1)c1ccc(Nc2cc(Nc3ccccc3S(C)(=O)=O)ncn2)nc1 (stereo in doubt) [Compound 40, (R)—N^4-(2-(methylsulfonyl)phenyl)-N^6-(5-(1-(oxetan-3-ylamino)ethyl)pyridin-2-yl)pyrimidine-4,6-diamine]",††† (†††: >0.39)
5,"COc1cnc(Nc2cc(Nc3ccc([C@H](C)N4CC5(COC5)C4)cn3)ncn2)c(S(C)(=O)=O)c1 [Compound 3, (S)—N^4-(5-(1-(2-oxa-6-azaspiro[3.3]heptan-6-yl)ethyl)pyridine-2-yl)-N^6-(5-methoxy-3-(methylsulfonyl)pyridin-2-yl)pyrimidine-4,6-diamine]",†† (††: 0.37-0.39)
6,"Cc1nc(Nc2cc(Nc3ncccc3S(C)(=O)=O)ncn2)ccc1NC1(C)COC1 [Compound 6, N^4-(6-methyl-5-((3-methyloxetan-3-yl)amino)pyridin-2-yl)-N^6-(3-(methylsulfonyl)pyridin-2-yl)pyrimidine-4,6-diamine]",††† (†††: >0.39)
7,"CS(=O)(=O)c1cccnc1Nc1cc(Nc2ccc(N3CCN(C4CC4)CC3)cn2)ncn1 [Compound 7, N^4-(5-(4-cyclopropylpiperazin-1-yl)pyridin-2-yl)-N^6-(3-(methylsulfonyl)pyridin-2-yl)pyrimidine-4,6-diamine]",††† (†††: >0.39)
8,"C[C@H]1CN(C2CC2)CCN1c1ccc(Nc2cc(Nc3ncccc3S(C)(=O)=O)ncn2)nc1 [Compound 8, (S)—N^4-(5-(4-cyclopropyl-2-methylpiperazin-1-yl)pyridin-2-yl)-N^6-(3-(methylsulfonyl)pyridin-2-yl)pyrimidine-4,6-diamine]",††† (†††: >0.39)
9,"CS(=O)(=O)c1cccnc1Nc1cc(Nc2ccc3c(n2)CC[C@@H]3N2CC3(COC3)C2)ncn1 [Compound 9, N^4-((5S)-5-(2-oxa-6-azaspiro[3.3]heptan-6-yl)-6,7-dihydro-5H-cyclopenta[b]pyridin-2-yl)-N^6-(3-(methylsulfonyl)pyridin-2-yl)pyrimidine-4,6-diamine]",††† (†††: >0.39)
10,"CC(C)[C@@H](c1ccc(Nc2cc(Nc3ncccc3S(C)(=O)=O)ncn2)nc1)N1CC2(COC2)C1 [Compound 13, (S)—N^4-(5-(2-methyl-1-(2-oxa-6-azaspiro[3.3]heptan-6-yl)propyl)pyridine-2-yl)-N^6-(3-(methylsulfonyl)pyridin-2-yl)pyrimidine-4,6-diamine]",†† (††: 0.37-0.39)
11,"C[C@@H](c1ccc(Nc2cc(Nc3ncc(Cl)cc3S(C)(=O)=O)ncn2)nc1)N1CC2(COC2)C1 [Compound 14, (S)—N^4-(5-(1-(2-oxa-6-azaspiro[3.3]heptan-6-yl)ethyl)pyridin-2-yl)-N^6-(5-chloro-3-(methylsulfonyl)pyridin-2-yl)pyrimidine-4,6-diamine]",††† (†††: >0.39)
12,"CS(=O)(=O)c1cccnc1Nc1cc(Nc2ccc([C@@H](N3CC4(COC4)C3)C(F)(F)F)cn2)ncn1 [Compound 16, (R)—N^4-(3-(methylsulfonyl)pyridin-2-yl)-N^6-(5-(2,2,2-trifluoro-1-(2-oxa-6-azaspiro[3.3]heptan-6-yl)ethyl)pyridin-2-yl)pyrimidine-4,6-diamine]",†† (††: 0.37-0.39)
13,"CS(=O)(=O)c1cccnc1Nc1cc(Nc2cccc(C(F)(F)F)n2)ncn1 [Compound 19, N^4-(3-(methylsulfonyl)pyridin-2-yl)-N^6-(6-(trifluoromethyl)pyridin-2-yl)pyrimidine-4,6-diamine]",††† (†††: >0.39)
14,"C[C@H]1CN(C)CCN1c1ccc(Nc2cc(Nc3ncccc3S(C)(=O)=O)ncn2)nc1 [Compound 20, (S)—N^4-(5-(2,4-dimethylpiperazin-1-yl)pyridin-2-yl)-N^6-(3-(methylsulfonyl)pyridin-2-yl)pyrimidine-4,6-diamine]",††† (†††: >0.39)
15,"CC1(Nc2ccc(Nc3cc(Nc4ncccc4S(C)(=O)=O)ncn3)nc2)COC1 [Compound 21, N^4-(5-((3-methyloxetan-3-yl)amino)pyridin-2-yl)-N^6-(3-(methylsulfonyl)pyridin-2-yl)pyrimidine-4,6-diamine]",††† (†††: >0.39)
16,"CC(c1ccc(Nc2cc(Nc3ncccc3S(C)(=O)=O)ncn2)nc1)N1CC(F)C1 (stereo not drawn) [Compound 22, N^4-(5-(1-(3-fluoroazetidin-1-yl)ethyl)pyridin-2-yl)-N^6-(3-(methylsulfonyl)pyridin-2-yl)pyrimidine-4,6-diamine]",††† (†††: >0.39)
17,"Cc1cc(Nc2cc(Nc3ncccc3S(C)(=O)=O)ncn2)ncc1NC1(C)COC1 [Compound 23, N^4-(4-methyl-5-((3-methyloxetan-3-yl)amino)pyridin-2-yl)-N-(3-(methylsulfonyl)pyridin-2-yl)pyrimidine-4,6-diamine]",††† (†††: >0.39)
18,"CS(=O)(=O)c1cccnc1Nc1cc(Nc2ccc(N3CCC4(CCO4)CC3)cn2)ncn1 [Compound 24, N^4-(5-(1-oxa-7-azaspiro[3.5]nonan-7-yl)pyridin-2-yl)-N^6-(3-(methylsulfonyl)pyridin-2-yl)pyrimidine-4,6-diamine]",†† (††: 0.37-0.39)
19,"C[C@@H](c1ccc(Nc2cc(Nc3ncccc3S(C)(=O)=O)ncn2)nc1)N1C[C@H]2COC[C@H]2C1 [Compound 25, N^4-(3-(methylsulfonyl)pyridin-2-yl)-N^6-(5-(1-((3aR,6aS)-tetrahydro-1H-furo[3,4-c]pyrrol-5(3H)-yl)ethyl)pyridin-2-yl)pyrimidine-4,6-diamine]",††† (†††: >0.39)
20,"CC(NC1CCOC1)c1ccc(Nc2cc(Nc3ccccc3S(C)(=O)=O)ncn2)nc1 (stereo not drawn) [Compound 26, N^4-(2-(methylsulfonyl)phenyl)-N^6-(5-(1-(tetrahydrofuran-3-ylamino)ethyl)pyridin-2-yl)pyrimidine-4,6-diamine]",†† (††: 0.37-0.39)
21,"CS(=O)(=O)c1ccccc1Nc1cc(Nc2ccc3c(n2)CCCC3N2CC3(CCOCC3)C2)ncn1 (stereo not drawn) [Compound 27, N^4-(5-(7-oxa-2-azaspiro[3.5]nonan-2-yl)-5,6,7,8-tetrahydroquinolin-2-yl)-N^6-(2-(methylsulfonyl)phenyl)pyrimidine-4,6-diamine]",† (†: < 0.37)
22,"CS(=O)(=O)c1ccccc1Nc1cc(Nc2ccc(CNC3CCOC3)cn2)ncn1 (stereo not drawn) [Compound 28, N^4-(2-(methylsulfonyl)phenyl)-N^6-(5-((tetrahydrofuran-3-ylamino)methyl)pyridin-2-yl)pyrimidine-4,6-diamine]",†† (††: 0.37-0.39)
23,"C[C@@H](c1ccc(Nc2cc(Nc3ncccc3S(C)(=O)=O)ncn2)nc1)N1CCCC12CCOCC2 [Compound 29, (S)—N^4-(5-(1-(8-oxa-1-azaspiro[4.5]decan-1-yl)ethyl)pyridin-2-yl)-N^6-(3-(methylsulfonyl)pyridin-2-yl)pyrimidine-4,6-diamine]",†† (††: 0.37-0.39)
24,"C[C@H](c1ccc(Nc2cc(Nc3ncccc3S(C)(=O)=O)ncn2)nc1)N1CCC2(CCOCC2)C1 [Compound 30, (R)—N^4-(5-(1-(8-oxa-2-azaspiro[4.5]decan-2-yl)ethyl)pyridin-2-yl)-N^6-(3-(methylsulfonyl)pyridin-2-yl)pyrimidine-4,6-diamine]",†† (††: 0.37-0.39)
25,"C[C@@H](c1ccc(Nc2cc(Nc3ncccc3S(C)(=O)=O)ncn2)nc1)N1CC2(CCOC2)C1 [Compound 32, (S)—N^4-(5-(1-(6-oxa-2-azaspiro[3.4]octan-2-yl)ethyl)pyridin-2-yl)-N^6-(3-(methylsulfonyl)pyridin-2-yl)pyrimidine-4,6-diamine]",††† (†††: >0.39)
26,"CC(C)(c1ccc(Nc2cc(Nc3ncccc3S(C)(=O)=O)ncn2)nc1)N1CC2(CCOCC2)C1 [Compound 33, N^4-(5-(2-(7-oxa-2-azaspiro[3.5]nonan-2-yl)propan-2-yl)pyridin-2-yl)-N^6-(3-(methylsulfonyl)pyridin-2-yl)pyrimidine-4,6-diamine]",†† (††: 0.37-0.39)
27,"CC(c1ccc(Nc2cc(Nc3ncccc3S(C)(=O)=O)ncn2)nc1)N1CC2(CC(C(F)F)C2)C1 (stereo not drawn) [Compound 34, N^4-(5-(1-(6-(difluoromethyl)-2-azaspiro[3.3]heptan-2-yl)ethyl)pyridin-2-yl)-N^6-(3-(methylsulfonyl)pyridin-2-yl)pyrimidine-4,6-diamine]",†† (††: 0.37-0.39)

# Reference: patent publication US20260048051A1, “TREATMENT OF INFLAMMATORY BOWEL DISEASE” (Atomwise Inc., priority 2024, published 2026)
